# Reference: patent US20260048052A1, “METHODS OF TREATING TENOSYNOVIAL GIANT CELL TUMORS” (Deciphera Pharmaceuticals, LLC, priority 2023, published 2026)
# Values joined by “and” are separate entries in the source; they are usually repeats but may differ in a detail not shown here. Equal values may be shown once.
# Tests used:
# [1] = test system: patients with TGCT not amenable to surgery; test: Phase 3 study of vimseltinib in patients with TGCT: safety (TEAEs, Part 1); assay type: in vivo, human
# Experimental: This study is a two-part, randomized, double-blind, placebo-controlled study to assess the efficacy and safety of vimseltinib in patients with TGCT not amenable to surgery with no prior anti-CSF1/CSF1R therapy (prior therapy with imatinib or nilotinib allowed). In Part 1, patients (n=123) were randomized two-to-one to receive either 30 mg twice weekly of vimseltinib (n=83) or placebo (n=40) for 24 weeks. Vimseltinib or matching placebo was administered orally each week on day 1 and day 5 (±1 day) at approximately the same time of day on an empty stomach, with ≥24 hours between doses. An MRI of the affected joint was performed at screening, cycle 4 day 1 (week 13; ±7 days), and at the end of Part 1. Part 2 is an ongoing open-label study, in which patients from both the vimseltinib and placebo arms receive treatment with vimseltinib.
# The primary endpoint of the study is the objective response rate (ORR) at Week 25 as measured by Response Evaluation Criteria in Solid Tumors (RECIST) version 1.1 by blinded independent radiologic review (IRR). Key secondary endpoints included the objective response rate at Week 25 by IRR per tumor volume score (TVS), active range of motion (ROM) at Week 25, PROMIS physical function (PROMIS-PF) score, worst stiffness numeric rating scale (NRS) score at Week 25, EQ-visual analogue scale (EQ-VAS) score at Week 25, and greater than or equal to 30% reduction in Brief Pain Inventory (BPI) in worst pain and less than 30% increase in narcotic use (BPI-30) at Week 25. Other secondary endpoints included duration of response (DOR) and safety.
# Vimseltinib was well-tolerated and the safety profile in the study was consistent with previously disclosed data. […] Patients with treatment-emergent adverse events (TEAEs) leading to treatment discontinuation was 5% in the vimseltinib arm. The table below lists TEAEs greater than 15% in either arm during Part 1 of the study.
# [2] = test system: patients with TGCT; test: Phase 1/2 open-label, multicenter study of vimseltinib in patients with TGCT: efficacy; assay type: in vivo, human; settings: for Worst stiffness NRS response rate / Worst stiffness NRS response rate, n of responders: Week 25, response = at least a 2-point decrease; for PROMIS-PF response rate / PROMIS-PF response rate, No. of responders: Week 25, response = at least a 3-point increase; for Active ROM response rate / Active ROM response rate, No. of responders: Week 25, response = at least a 10% increase
# Experimental: This is a Phase 1/2 open-label, multicenter study evaluating the safety and efficacy of vimseltinib in patients with TGCT. In Phase 1, 32 patients enrolled in three cohorts across multiple doses. In Phase 2, 66 patients enrolled in two cohorts at the recommended Phase 2 dose of 30 mg twice weekly: Cohort A (n=46) in TGCT patients with no prior anti-CSF1/CSF1R therapy (prior therapy with imatinib or nilotinib allowed); and Cohort B (n=20) in TGCT patients with prior anti-CSF1/CSF1R therapy (prior therapy with imatinib or nilotinib alone not eligible). With regards to antitumor activity and treatment duration, 93 patients were evaluable for efficacy by RECIST version 1.1 at the data cutoff date.
# [3] = 30 mg twice weekly, n=83, Part 1
# [4] = Cohort A, Partial Response per RECIST v1.1 at Week 25 by IRR (n = 17)
# [5] = Cohort A, Stable Disease per RECIST v1.1 at Week 25 by IRR (n = 22)
# [6] = Cohort B (20 patients), Week 25
# [7] = Cohort B, Partial Response per RECIST v1.1 at Week 25 by IRR (n = 5)
# [8] = Cohort B, Stable Disease per RECIST v1.1 at Week 25 by IRR (n = 9)
# [9] = Phase 2 Cohort A (n = 45), second data cutoff
# [10] = Phase 2 Cohort B (n = 13), second data cutoff
# [11] = Phase 2 Cohort B (n = 19), second data cutoff
smiles,measurement,setting,value
"Cc1nc(-c2cnc(NC(C)C)n(C)c2=O)ccc1Oc1ccnc(-c2cnn(C)c2)c1 [Vimseltinib, 2-(isopropylamino)-3-methyl-5-(6-methyl-5-((2-(1-methyl-IH-pyrazol-4-yl)pyridin-4-yl)oxy)pyridin-2-yl)pyrimidin-4(3H)-one]",cholestatic hepatotoxicity,[1]; 30 mg twice weekly,no evidence of cholestatic hepatotoxicity
same,related SAE,[1]; 30 mg twice weekly,one related SAE of subcutaneous abscess
same,severe adverse events (SAE) per patient,[1]; 30 mg twice weekly,no severe adverse event (SAE) occurred in more than one patient
same,tolerability,[1]; 30 mg twice weekly,well-tolerated
same,"TEAE AST increased, All Grades",[1]; [3],19 (23%) n (%)
same,"TEAE AST increased, Grade 3-4, number of patients",[1]; [3],0 n
same,"TEAE Arthralgia, All Grades",[1]; [3],16 (19%) n (%)
same,"TEAE Arthralgia, Grade 3-4, number of patients",[1]; [3],0 n
same,"TEAE Asthenia, All Grades",[1]; [3],22 (27%) n (%)
same,"TEAE Asthenia, Grade 3-4, number of patients",[1]; [3],1 n
same,"TEAE Asthenia, Grade 3-4, percent of patients",[1]; [3],(1%)
same,"TEAE CPK increased, All Grades",[1]; [3],20 (24%) n (%)
same,"TEAE CPK increased, Grade 3-4, number of patients",[1]; [3],8 n
same,"TEAE CPK increased, Grade 3-4, percent of patients",[1]; [3],10%
same,"TEAE Diarrhea, All Grades",[1]; [3],10 (12%) n (%)
same,"TEAE Diarrhea, Grade 3-4, number of patients",[1]; [3],0 n
same,"TEAE Edema peripheral, All Grades",[1]; [3],15 (18%) n (%)
same,"TEAE Edema peripheral, Grade 3-4, number of patients",[1]; [3],0 n
same,"TEAE Face edema, All Grades",[1]; [3],26 (31%) n (%)
same,"TEAE Face edema, Grade 3-4, number of patients",[1]; [3],1 n
same,"TEAE Face edema, Grade 3-4, percent of patients",[1]; [3],(1%)
same,"TEAE Fatigue, All Grades",[1]; [3],27 (33%) n (%)
same,"TEAE Fatigue, Grade 3-4, number of patients",[1]; [3],0 n
same,"TEAE Headache, All Grades",[1]; [3],23 (28%) n (%)
same,"TEAE Headache, Grade 3-4, number of patients",[1]; [3],1 n
same,"TEAE Headache, Grade 3-4, percent of patients",[1]; [3],(1%)
same,"TEAE Hypertension, All Grades",[1]; [3],14 (17%) n (%)
same,"TEAE Hypertension, Grade 3-4, number of patients",[1]; [3],4 n
same,"TEAE Hypertension, Grade 3-4, percent of patients",[1]; [3],(5%)
same,"TEAE Nausea, All Grades",[1]; [3],21 (25%) n (%)
same,"TEAE Nausea, Grade 3-4, number of patients",[1]; [3],0 n
same,"TEAE Periorbital edema, All Grades",[1]; [3],37 (45%) n (%)
same,"TEAE Periorbital edema, Grade 3-4, number of patients",[1]; [3],3 n
same,"TEAE Periorbital edema, Grade 3-4, percent of patients",[1]; [3],(4%)
same,"TEAE Pruritus, All Grades",[1]; [3],24 (29%) n (%)
same,"TEAE Pruritus, Grade 3-4, number of patients",[1]; [3],2 n
same,"TEAE Pruritus, Grade 3-4, percent of patients",[1]; [3],(2%)
same,"TEAE Rash maculo-papular, All Grades",[1]; [3],16 (19%) n (%)
same,"TEAE Rash maculo-papular, Grade 3-4, number of patients",[1]; [3],1 n
same,"TEAE Rash maculo-papular, Grade 3-4, percent of patients",[1]; [3],(1%)
same,"TEAE Rash, All Grades",[1]; [3],16 (19%) n (%)
same,"TEAE Rash, Grade 3-4, number of patients",[1]; [3],0 n
same,"TEAE CPK increased, Grade 3-4, percent of patients","[1]; 30 mg twice weekly, n=83, Part 1, listed as Vimseltinb",(10%)
same,Patients with TEAEs leading to treatment discontinuation,[1]; vimseltinib arm,5%
same,"Worst stiffness NRS at Week 25, mean",[2]; Cohort A (32 patients),3.1
same,"PROMIS-PF at Week 25, mean",[2]; Cohort A (35 patients),43.9
same,BPI worst pain response rate,"[2]; Cohort A (46 patients), Week 25",(50) %
same,"BPI worst pain response rate, No. of responders","[2]; Cohort A (46 patients), Week 25, 30% or greater decrease without 30% or greater increase in narcotic analgesic use",23 No.
same,Average pain responder,[2]; [4],12 (71) No. (%)
same,Worst pain responder,[2]; [4],10 (59) No. (%)
same,Average pain responder,[2]; [5],12 (55) No. (%)
same,Worst pain responder,[2]; [5],12 (55) No. (%)
same,"PROMIS-PF change from baseline, mean","[2]; Cohort A, Week 25",3.9
same,"Worst stiffness NRS change from baseline, mean","[2]; Cohort A, Week 25",−1.8
same,Worst stiffness NRS response rate,[2]; Cohort A,(66) %
same,"Worst stiffness NRS response rate, n of responders",[2]; Cohort A,21 n
same,PROMIS-PF response rate,[2]; Cohort A,(49) %
same,"PROMIS-PF response rate, No. of responders",[2]; Cohort A,17 No.
same,Active ROM response rate,[2]; Cohort A,(42) %
same,"Active ROM response rate, No. of responders",[2]; Cohort A,19 No.
same,patients with BPI response for both worst pain and average pain,"[2]; Cohort B (11/20), Week 25, ≥30% reduction in pain without ≥30% increase in narcotic analgesic use",55%
same,"Worst stiffness NRS at Week 25, mean",[2]; Cohort B (14 patients),2.6
same,"PROMIS-PF at Week 25, mean",[2]; Cohort B (15 patients),49.5
same,BPI worst pain response rate,[2]; [6],(55) %
same,"BPI worst pain response rate, No. of responders",[2]; [6],11 No.
same,Average pain responder,[2]; [7],2 (40) No. (%)
same,Worst pain responder,[2]; [7],2 (40) No. (%)
same,Average pain responder,[2]; [8],7 (78) No. (%)
same,Worst pain responder,[2]; [8],7 (78) No. (%)
same,BPI responders among patients with objective responses by RECIST v1.1,"[2]; Cohort B, Week 25",40%
same,BPI responders among patients with stable disease,"[2]; Cohort B, Week 25",78%
same,"PROMIS-PF change from baseline, mean","[2]; Cohort B, Week 25",6.2
same,"Worst stiffness NRS change from baseline, mean","[2]; Cohort B, Week 25",−2.2
same,patients with clinically meaningful improvements in NRS stiffness,"[2]; Cohort B, Week 25",58%
same,patients with clinically meaningful improvements in PROMIS-PF,"[2]; Cohort B, Week 25",63%
same,Worst stiffness NRS response rate,[2]; Cohort B,(71) %
same,"Worst stiffness NRS response rate, n of responders",[2]; Cohort B,10 n
same,PROMIS-PF response rate,[2]; Cohort B,(80) %
same,"PROMIS-PF response rate, No. of responders",[2]; Cohort B,12 No.
same,Active ROM response rate,[2]; Cohort B,(26) %
same,"Active ROM response rate, No. of responders",[2]; Cohort B,5 No.
same,ORR per RECIST v1.1 by IRR,"[2]; Phase 1 (n = 32), multiple doses, first data cutoff",72%
same,progression as assessed by IRR,"[2]; Phase 2, second data cutoff",no patients progressed
same,"Active ROM at Week 25, mean","[2]; Phase 2 Cohort A (33 patients), second data cutoff",77.8%
same,ORR per RECIST v1.1 by IRR at Week 25,"[2]; Phase 2 Cohort A (n = 45), 30 mg twice weekly, first data cutoff",38%
same,ORR per RECIST v1.1 by IRR,"[2]; Phase 2 Cohort A (n = 45), 30 mg twice weekly, no prior anti-CSF1/CSF1R therapy, first data cutoff",64%
same,ORR per RECIST v1.1 by IRR,[2]; [9],64%
same,ORR per RECIST v1.1 by IRR at Week 25,[2]; [9],38%
same,ORR per TVS by IRR,[2]; [9],62%
same,ORR per TVS by IRR at Week 25,[2]; [9],51%
same,"Active ROM, change from baseline at Week 25, mean (SD)","[2]; Phase 2 Cohort A, second data cutoff",19.7 (43.5) percentage points and 19.7 percentage points
same,"Active ROM of the affected joint at Week 25, mean (SD)",[2]; [10],65.2 (37.5) % and 65.2%
same,"Active ROM, change from baseline to Week 25, mean (SD)",[2]; [10],14.1 (27.4) percentage points and 14.1 percentage points
same,ORR per RECIST v1.1 by IRR,"[2]; Phase 2 Cohort B (n = 16), 30 mg twice weekly, prior anti-CSF1/CSF1R therapy, first data cutoff",44%
same,ORR per RECIST v1.1 by IRR,[2]; [11],37%
same,ORR per RECIST v1.1 by IRR at Week 25,[2]; [11],26%
same,ORR per TVS by IRR,[2]; [11],42%
same,ORR per TVS by IRR at Week 25,[2]; [11],26%
same,"symptomatic benefit across secondary efficacy measures (ORR by TVS, active range of motion, physical function, stiffness, pain)","[2]; Phase 2 Cohorts A and B, Week 25",clinically meaningful symptomatic benefit
same,Active ROM at Week 25: patients with decrease,"[2]; Phase 2 cohort A, FIG. 9A",4 n
same,Active ROM at Week 25: patients with increase from baseline,"[2]; Phase 2 cohort A, FIG. 9A",23 n
same,Active ROM at Week 25: patients with no change,"[2]; Phase 2 cohort A, FIG. 9A",5 n
same,Active ROM at Week 25: patients with decrease,"[2]; Phase 2 cohort B, FIG. 9B",1 n
same,Active ROM at Week 25: patients with increase from baseline,"[2]; Phase 2 cohort B, FIG. 9B",9 n
same,Active ROM at Week 25: patients with no change,"[2]; Phase 2 cohort B, FIG. 9B",3 n
